The record followed here is US10376504B2, “Substituted quinolinones as PDE9 inhibitors” (Merck Sharp & Dohme Corp., priority 2015, dated 2019).

human PDE9 (PDE9A2), sequence (O76083 other isoform, or with tags, fused parts or gaps): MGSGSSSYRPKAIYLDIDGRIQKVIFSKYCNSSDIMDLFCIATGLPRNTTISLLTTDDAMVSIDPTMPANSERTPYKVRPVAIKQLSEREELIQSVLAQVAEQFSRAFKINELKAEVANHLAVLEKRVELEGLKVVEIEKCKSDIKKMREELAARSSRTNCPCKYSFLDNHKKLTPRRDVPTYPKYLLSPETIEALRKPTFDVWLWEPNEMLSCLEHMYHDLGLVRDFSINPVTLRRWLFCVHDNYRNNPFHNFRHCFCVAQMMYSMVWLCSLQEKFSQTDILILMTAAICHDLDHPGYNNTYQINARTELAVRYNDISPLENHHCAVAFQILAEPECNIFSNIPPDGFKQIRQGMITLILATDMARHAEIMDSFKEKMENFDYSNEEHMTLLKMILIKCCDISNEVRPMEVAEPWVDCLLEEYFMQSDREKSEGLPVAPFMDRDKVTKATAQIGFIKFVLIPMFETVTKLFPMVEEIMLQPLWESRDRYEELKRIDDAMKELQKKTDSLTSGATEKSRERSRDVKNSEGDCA

In the assay the target is human PDE9 (PDE9A2) (Homo sapiens (Human), UniProt O76083). The experiment in a line: PDE9 IMAP fluorescence polarization (FP) inhibition assay. In kind it is biochemical. Conditions: FAM-cGMP substrate 50 nM, room temperature. On the procedure:
The activity of the compounds in accordance with the present invention as PDE9 inhibitors may be readily determined without undue experimentation using a fluorescence polarization (FP) methodology that is well known in the art (Huang, W., et al., J. Biomol Screen, 2002, 7: 215).
In a typical experiment the PDE9 inhibitory activity of the compounds of the present invention was determined in accordance with the following experimental method. Rhesus PDE9A2 was amplified from rhesus whole brain cDNA (Biochain Institute) essentially as described in Hutson, et al. Neuropharmacology (2011) 61(4):665-676. HEK 293 or CHO cells over-expressing rhesus or rat PDE9A2 (created by DiscoverX from mRNA Genbank accession # NM_138543) respectively were lysed in 20 mM HEPES, 1 mM EDTA buffer with protease inhibitors (Roche, Indianapolis, Ind.). After brief homogenization, cells were pelleted via centrifugation at 75,000×g for 20 min at 4° C. The pellets were re-suspended, centrifuged and re-pelleted again in the same manner. The membrane fraction was collected in 20 mM HEPES, 1 mM MgCl2 with protease inhibitors. Human PDE9 (PDE9A2, GenBank Accession No. NM_001001567), full length with N-terminal GST tag, was purchased from BPS Bioscience. The fluorescence polarization assay for cyclic nucleotide phosphodiesterases was performed using an IMAP® FP kit supplied by Molecular Devices, Sunnyvale, Calif. (product # R8139). IMAP® technology has been applied previously to phosphodiesterase assays (Huang, W., et al., J. Biomol Screen, 2002, 7: 215). Assays were performed at room temperature in 384-well microtiter plates with an incubation volume of 20.2 μL. Solutions of test compounds were prepared in DMSO and serially diluted with DMSO to yield 8 μL of each of 10 solutions differing by 3-fold in concentration, at 32 serial dilutions per plate. 100% inhibition is determined using a known PDE9 inhibitor, such as 1-(2-chlorophenyl)-6-[(2R)-3,3,3-trifluoro-2-methylpropyl]-1,5-dihydro-4H-pyrazolo[3,4-d]pyrimidine-4-one (BAY 73-6691) (Wunder et al, Mol. Pharmacol., 2005, 68(6): 1775-81), (6-[(3S,4S)-4-methyl-1-(pyrimidin-2-ylmethyl)pyrrolidin-3-yl]-1-(tetrahydro-2H-pyran-4-yl)-1,5-dihydro-4H-pyrazolo[3,4-d]pyrimidin-4-one (PF-04447943) (Wager et al., ACS Chemical Neuroscience, 2010, 1:435-449). 0% of inhibition is determined by using DMSO (1% final concentrations). A Labcyte Echo 555 (Labcyte, Sunnyvale, Calif.) is used to dispense 200 nL from each well of the titration plate to the 384 well assay plate. Rhesus membrane preps were diluted to 4 ng/ml, rat membrane preps diluted to 13 ng/ml, and human PDE9A2 diluted to 1 ng/ml. FAM-labeled cGMP substrate (Molecular Devices, Sunnyvale, Calif.) was at a concentration of 100 nM (Km of PDE9 for cGMP is 70-170 nM) in the assay buffer (10 mM Tris HCl, pH 7.2, 10 mM MgCl2, 0.05% NaN3 0.01% Tween-20, and 1 mM DTT). PDE9 enzyme mix and compounds were mixed and incubated at room temperature for 30 min. Following which, FAMcGMP substrate was added, shaken and incubated for an additional 60 min at room temperature. The final concentrations of rhesus and rat membrane preparations were 2 ng/ml and 6.5 ng/ml, respectively, while the human PDE9 was used at a final concentration of 0.5 ng/ml. The final concentration of FAM-cGMP was 50 nM. After the incubation period, the enzymatic reaction was stopped by addition of binding solution (IMAP-FP, Molecular Devices, comprised of 80% Solution A, 20% Solution B and a 1:600 dilution of binding reagent) to each well. The plates were shaken then incubated at room temperature for 1 h prior to determining the fluorescence polarization (mP) using a Perkin Elmer EnVision™ plate reader (Waltham, Mass.).
Fluorescence polarization (mP) was calculated from the parallel (S) and perpendicular (P) fluorescence of each sample well and the analogous values for the median control well, containing only substrate (So and Po), using the following equation: Polarization(mP)=1000*(S/So−P/Po)/(S/So+P/Po). […]
On the technique in general: Polarisation of emitted light reports the rotation of a fluorescent probe.
For the molecule `N#Cc1c(N2CC[C@@H](n3cccn3)C2)c2ccccc2[nH]c1=O` [Example 1-7, (R)-4-(3-[1H-pyrazol-1-yl]pyrrolidin-1-yl)-2-oxo-1,2-dihydroquinoline-3-carbonitrile], the Ki was found to be 7.5 nM.

Regarding `N#Cc1c(N2CCCCCC2)c2ccccc2[nH]c1=O` [Example 1-8, 4-(azepan-1-yl)-2-oxo-1,2-dihydroquinoline-3-carbonitrile], the Ki is 18 nM. Under `N#Cc1c(N2CCC2)c2ccccc2[nH]c1=O` [Example 1-9, 4-(azetidin-1-yl)-2-oxo-1,2-dihydroquinoline-3-carbonitrile] stands 5550 nM; under `CCN(CC)c1c(C#N)c(=O)[nH]c2ccccc12` [Example 1-10, 4-(diethylamino)-2-oxo-1,2-dihydroquinoline-3-carbonitrile], 88.9 nM; under `CC1(C)CCN(c2c(C#N)c(=O)[nH]c3ccccc23)CC1` [Example 1-11, 4-(4,4-dimethylpiperidin-1-yl)-2-oxo-1,2-dihydroquinoline-3-carbonitrile], 26.3 nM. For `N#Cc1c(NCCC2COC2)c2ccccc2[nH]c1=O` [Example 1-12, 4-((2-(oxetan-3-yl)ethyl)amino)-2-oxo-1,2-dihydroquinoline-3-carbonitrile] the value was 71.1 nM.

In general, Ki refers to the dissociation constant of the complex between target and ligand, obtained from inhibition or displacement.
